Data from article PMC6934184, “Selective DNA-PKcs inhibition extends the therapeutic index of localized radiotherapy and chemotherapy” (The Journal of Clinical Investigation, 2019).

Target: T1, AMPK (A1/B1/G2) (Homo sapiens, UniProt Q13131)
T1 construct: purchased Thermo Fisher Scientific (Life Technologies) SelectScreen
Test: SelectScreen LanthaScreen
Type: binding
Details: read-out: % displacement
How it was run: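 SelectScreen broad panel; activity (Z'LYTE, Adapta) plus binding formats. ATP: Km app for CSF1R Z'LYTE; 10 for CAMK1 Adapta. Readout = % per kinase.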

T1 sequence (Q13131 whole entry): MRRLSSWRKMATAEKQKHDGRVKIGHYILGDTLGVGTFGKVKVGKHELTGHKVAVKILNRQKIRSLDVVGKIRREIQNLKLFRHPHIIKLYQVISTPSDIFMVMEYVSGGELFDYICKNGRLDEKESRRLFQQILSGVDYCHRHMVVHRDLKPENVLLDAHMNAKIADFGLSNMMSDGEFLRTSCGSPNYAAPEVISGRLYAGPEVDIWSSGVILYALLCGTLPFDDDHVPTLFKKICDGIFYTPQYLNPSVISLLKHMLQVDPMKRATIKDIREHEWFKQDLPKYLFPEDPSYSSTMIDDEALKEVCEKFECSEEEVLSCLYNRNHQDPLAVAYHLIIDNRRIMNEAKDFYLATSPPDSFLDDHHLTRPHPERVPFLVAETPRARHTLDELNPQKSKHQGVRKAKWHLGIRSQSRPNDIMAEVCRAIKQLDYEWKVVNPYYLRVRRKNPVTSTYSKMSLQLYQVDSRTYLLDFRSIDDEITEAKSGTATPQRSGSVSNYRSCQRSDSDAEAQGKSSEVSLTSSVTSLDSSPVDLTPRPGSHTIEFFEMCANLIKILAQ
T1 sequence (Q9Y478 whole entry partner): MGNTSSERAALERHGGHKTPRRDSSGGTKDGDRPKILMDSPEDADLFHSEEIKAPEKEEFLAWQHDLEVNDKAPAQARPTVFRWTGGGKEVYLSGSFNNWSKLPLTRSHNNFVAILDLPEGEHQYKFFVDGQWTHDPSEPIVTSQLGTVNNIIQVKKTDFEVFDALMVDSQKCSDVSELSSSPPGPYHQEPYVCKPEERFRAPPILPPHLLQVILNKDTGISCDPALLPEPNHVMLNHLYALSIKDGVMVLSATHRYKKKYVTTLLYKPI
T1 sequence (Q9UGJ0 whole entry partner): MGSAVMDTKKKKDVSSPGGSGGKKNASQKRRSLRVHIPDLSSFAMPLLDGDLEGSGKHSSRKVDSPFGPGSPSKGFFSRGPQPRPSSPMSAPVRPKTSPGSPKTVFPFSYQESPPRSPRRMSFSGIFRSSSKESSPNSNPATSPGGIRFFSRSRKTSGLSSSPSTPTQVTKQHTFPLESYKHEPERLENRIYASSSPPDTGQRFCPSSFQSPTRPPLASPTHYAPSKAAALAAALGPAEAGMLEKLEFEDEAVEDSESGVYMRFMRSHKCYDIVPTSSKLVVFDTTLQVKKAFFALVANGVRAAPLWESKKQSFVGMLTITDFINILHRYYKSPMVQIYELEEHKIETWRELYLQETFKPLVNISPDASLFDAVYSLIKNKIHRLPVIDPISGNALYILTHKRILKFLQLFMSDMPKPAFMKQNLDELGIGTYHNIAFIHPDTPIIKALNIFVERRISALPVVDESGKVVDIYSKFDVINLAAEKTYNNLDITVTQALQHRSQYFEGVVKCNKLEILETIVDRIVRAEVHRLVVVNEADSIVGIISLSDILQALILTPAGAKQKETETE

SMILES: CN(C(=O)CN1CCOCC1)c1ccc2sc3c(-c4cccc5c(=O)cc(N6CC7CCC(C6)O7)oc45)cccc3c2c1 [NU5455]
- inhibition at 1 µM: 2.4%
